Data on one substance can be found in patent US11220534B2, “Treatment of neurological diseases” (Lancaster University Business Enterprises Limited, priority 2016, dated 2022).

For test [1], the system named is APP/PS1 mice. The experiment in a line: Reversal Morris water maze test. The test is classed as in vivo. An excerpt: (§1) Materials and methods in Example 2 are the same as Example 1 except when stated. Reagents used in Example 2 only include antibodies to p-PI3Kp85, PI3Kp85, p-Akt (ser473), Akt, p-GSK3β (Y216), and GSK3β from Abcam, Inc. Cambridge, UK. The antibody to p-tau (AT8) from Thermo Scientific USA. Mouse Anti-β-actin, Anti-Rabbit IgG, Anti-mouse IgG, CY3-Anti-mouse IgG, RIPA Lysate, BCA Protein Assay Kit, DAPI staining solution and Anti-fluorescence decay agent from Boster (Wuhan, China).
(§2) Classical Morris water maze (MWM) test was used to investigate spatial reference memory of mouse. The water maze mainly included a stainless steel pool and a platform in the pool for escape. There were several landmarks fixed to the walls of the water maze. The pool was filled with tap water at 22±2° C. The first phase was acquisition trial phase which was consisted of five training days (days 1-5) and four trials each day. The pool (diameter, 120 cm; high, 50 cm) was divided into four quadrants and the escape platform (diameter, 12 cm) hidden 1 cm beneath the water surface was placed in the center of the first quadrant. […] The escape latencies were recorded by Ethovision 3.0 software system (Noldus Information Technology, the Netherlands). […] The percentage of swimming time in target quadrant (the first quadrant) and frequency of platform crossing were recorded. […] Swimming time to target was recorded.

Test [2] concerns APP/PS1 mice. Nature of the test: Classical Morris water maze test. The test is classed as in vivo.
Excerpt: as §1, §2

Where no end group is shown, it is not given here. [ ]: non-standard residue; d: D form. Aib = CC(C)(N)C(=O)O

“YXEGTFTSDYSIYLDKQAAXEFVNWLLAGGPSSGAPPPSKRRQRRKKRGY-NH2 (Y[Aib]EGTFTSDYSIYLDKQAA[Aib]EFVNWLLAGGPSSGAPPPSKRRQRRKKRGY-NH2) [DA5, No. 12; X=aminoisobutyric acid]”: the “probe test, recall of a change in escape route (reverse Morris water maze)” value with APP/PS1 mice [1] (APP/PS1 mice vs APP/PS1-saline, FIG. 8c, 8d) is listed as “recalled a change in escape route to a greater extent than APP/PS1-saline mice”. In addition, in the test with APP/PS1 mice [1] (APP/PS1 mice, FIG. 8, N=8-14 per group), the “cognitive flexibility and ability to relearn (reverse Morris water maze)” value is “protects APP/PS1 mice from decreased cognitive flexibility and restores their ability to relearn”. Also, the “probe test, recall of the escape route (classical Morris water maze)” value with APP/PS1 mice [2] (APP/PS1 mice vs APP/PS1-saline, FIG. 7c, 7d) was “recalled the escape route to a greater extent than APP/PS1-saline mice”. In addition, in the test on APP/PS1 mice [2] (APP/PS1 mice, FIG. 7, N=8-14 per group), the “disorder in spatial memory (classical Morris water maze)” value was “ameliorated”.
